Counter-ions that a name gives are not always drawn. Like-named read-outs stand apart in the source and are kept apart here.
Legend:
Experiment in all cases: AK assay 384-well format, Prestwick library screening
E. faecium = assay type: cell-based, Enterococcus faecium; settings: 50 μM final drug concentration; for fold induction at 50 µM: Enterococcus faecium, 3 h
[1] = system: S. aureus strain USA300-0114; assay type: cell-based, Staphylococcus aureus; settings: 50 μM final drug concentration; for fold induction at 50 µM: Staphylococcus aureus, USA300, 3 h
K. pneumoniae = assay type: cell-based, Klebsiella pneumoniae; settings: 50 μM final drug concentration; for fold induction at 50 µM: Klebsiella pneumoniae, 3 h
[2] = system: A. baumannii strain 98-37-09; assay type: cell-based, Acinetobacter baumannii; settings: 50 μM final drug concentration; for fold induction at 50 µM: Acinetobacter baumannii, 983709, 3 h
P. aeruginosa = assay type: cell-based, Pseudomonas aeruginosa; settings: 50 μM final drug concentration; for fold induction at 50 µM: Pseudomonas aeruginosa, 3 h
E. cloacae = assay type: cell-based, Enterobacter cloacae; settings: 50 μM final drug concentration; for fold induction at 50 µM: Enterobacter cloacae, 3 h
E. coli = assay type: cell-based, Escherichia coli; settings: 50 μM final drug concentration; for fold induction at 50 µM: Escherichia coli, 3 h
[3] = planktonic E. faecium, 384-well, cutoff for positive-scoring molecules 3-fold increase, read-out: AK-based Prestwick Library Screening Results: E. faecium (increase in extracellular AK activity)
[4] = planktonic S. aureus, 384-well, cutoff for positive-scoring molecules 3-fold increase, read-out: AK-based Prestwick Library Screening Results: S. aureus (increase in extracellular AK activity)
[5] = planktonic K. pneumoniae, 384-well, cutoff for positive-scoring molecules 3-fold increase, read-out: AK-based Prestwick Library Screening Results: K. pneumoniae (increase in extracellular AK activity)
[6] = planktonic A. baumannii, 384-well, cutoff for positive-scoring molecules 3-fold increase, read-out: AK-based Prestwick Library Screening Results: A. baumannii (increase in extracellular AK activity)
[7] = planktonic P. aeruginosa, 384-well, cutoff for positive-scoring molecules 3-fold increase, read-out: AK-based Prestwick Library Screening Results: P. aeruginosa (increase in extracellular AK activity)
[8] = planktonic E. cloacae, 384-well, cutoff for positive-scoring molecules 3-fold increase, read-out: AK-based Prestwick Library Screening Results: E. cloacae (increase in extracellular AK activity)
[9] = planktonic E. coli, 384-well, cutoff for positive-scoring molecules 3-fold increase, read-out: AK-based Prestwick Library Screening Results: E. coli (increase in extracellular AK activity)

## Cn1c([N+](=O)[O-])cnc1COC(N)=O [Ronidazole]
E. faecium; planktonic E. faecium, positive cutoff 3-fold increase, read-out: AK-based Prestwick library screening result, E. faecium (fold increase in extracellular AK activity)
  fold induction at 50 µM: 1.1
[1]; planktonic S. aureus, positive cutoff 3-fold increase, read-out: AK-based Prestwick library screening result, S. aureus (fold increase in extracellular AK activity)
  fold induction at 50 µM: 1.3
K. pneumoniae; planktonic K. pneumoniae, positive cutoff 3-fold increase, read-out: AK-based Prestwick library screening result, K. pneumoniae (fold increase in extracellular AK activity)
  fold induction at 50 µM: 1.7
[2]; planktonic A. baumannii, positive cutoff 3-fold increase, read-out: AK-based Prestwick library screening result, A. baumannii (fold increase in extracellular AK activity)
  fold induction at 50 µM: 1.6
P. aeruginosa; planktonic P. aeruginosa, positive cutoff 3-fold increase, read-out: AK-based Prestwick library screening result, P. aeruginosa (fold increase in extracellular AK activity)
  fold induction at 50 µM: 1
E. cloacae; planktonic E. cloacae, positive cutoff 3-fold increase, read-out: AK-based Prestwick library screening result, E. cloacae (fold increase in extracellular AK activity)
  fold induction at 50 µM: 1.6
E. coli; planktonic E. coli, positive cutoff 3-fold increase, read-out: AK-based Prestwick library screening result, E. coli (fold increase in extracellular AK activity)
  fold induction at 50 µM: 1.1

## Oc1ccc(OCc2ccccc2)cc1 [Monobenzone]
E. faecium; planktonic, cutoff for positive-scoring molecules 3-fold increase, read-out: AK-based Prestwick Library Screening Results, E. faecium (fold increase in extracellular AK activity)
  fold induction at 50 µM: 0.6
[1]; planktonic, cutoff for positive-scoring molecules 3-fold increase, read-out: AK-based Prestwick Library Screening Results, S. aureus (fold increase in extracellular AK activity)
  fold induction at 50 µM: 0.6
K. pneumoniae; planktonic, cutoff for positive-scoring molecules 3-fold increase, read-out: AK-based Prestwick Library Screening Results, K. pneumoniae (fold increase in extracellular AK activity)
  fold induction at 50 µM: 0.5
[2]; planktonic, cutoff for positive-scoring molecules 3-fold increase, read-out: AK-based Prestwick Library Screening Results, A. baumannii (fold increase in extracellular AK activity)
  fold induction at 50 µM: 0.5
P. aeruginosa; planktonic, cutoff for positive-scoring molecules 3-fold increase, read-out: AK-based Prestwick Library Screening Results, P. aeruginosa (fold increase in extracellular AK activity)
  fold induction at 50 µM: 0.7
E. cloacae; planktonic, cutoff for positive-scoring molecules 3-fold increase, read-out: AK-based Prestwick Library Screening Results, E. cloacae (fold increase in extracellular AK activity)
  fold induction at 50 µM: 1.4
E. coli; planktonic, cutoff for positive-scoring molecules 3-fold increase, read-out: AK-based Prestwick Library Screening Results, E. coli (fold increase in extracellular AK activity)
  fold induction at 50 µM: 0.7

## CCn1cc(C(=O)O)c(=O)c2cc(F)c(N3CCNC(C)C3)c(F)c21 (stereo not drawn) [Lomefloxacin hydrochloride]
E. faecium; [3]
  fold induction at 50 µM: 1.5
[1]; [4]
  fold induction at 50 µM: 3.4
K. pneumoniae; [5]
  fold induction at 50 µM: 1
[2]; [6]
  fold induction at 50 µM: 3.8
P. aeruginosa; [7]
  fold induction at 50 µM: 30.2
E. cloacae; [8]
  fold induction at 50 µM: 3.5
E. coli; [9]
  fold induction at 50 µM: 26.8

## Cc1oncc1C(=O)Nc1ccc(C(F)(F)F)cc1 [Leflunomide]
E. faecium; cutoff for positive-scoring molecules 3-fold increase, read-out: AK-based Prestwick Library Screening Results, E. faecium (fold increase in extracellular AK activity)
  fold induction at 50 µM: 0.7
[1]; cutoff for positive-scoring molecules 3-fold increase, read-out: AK-based Prestwick Library Screening Results, S. aureus (fold increase in extracellular AK activity)
  fold induction at 50 µM: 0.6
K. pneumoniae; cutoff for positive-scoring molecules 3-fold increase, read-out: AK-based Prestwick Library Screening Results, K. pneumoniae (fold increase in extracellular AK activity)
  fold induction at 50 µM: 0.6
[2]; cutoff for positive-scoring molecules 3-fold increase, read-out: AK-based Prestwick Library Screening Results, A. baumannii (fold increase in extracellular AK activity)
  fold induction at 50 µM: 0.8
P. aeruginosa; cutoff for positive-scoring molecules 3-fold increase, read-out: AK-based Prestwick Library Screening Results, P. aeruginosa (fold increase in extracellular AK activity)
  fold induction at 50 µM: 0.8
E. cloacae; cutoff for positive-scoring molecules 3-fold increase, read-out: AK-based Prestwick Library Screening Results, E. cloacae (fold increase in extracellular AK activity)
  fold induction at 50 µM: 1.5
E. coli; cutoff for positive-scoring molecules 3-fold increase, read-out: AK-based Prestwick Library Screening Results, E. coli (fold increase in extracellular AK activity)
  fold induction at 50 µM: 0.8

## Nc1c2c(nc3ccccc13)CCCC2O.O=C(O)/C=C\C(=O)O (racemic) [Hydroxytacrine maleate (R,S)]
E. faecium; planktonic E. faecium, cutoff for positive-scoring molecules 3-fold increase
  AK-based Prestwick Library Screening Results, E. faecium (increase in extracellular AK activity): 1.0
[1]; planktonic S. aureus, cutoff for positive-scoring molecules 3-fold increase
  AK-based Prestwick Library Screening Results, S. aureus (increase in extracellular AK activity): 3.0
K. pneumoniae; planktonic K. pneumoniae, cutoff for positive-scoring molecules 3-fold increase
  AK-based Prestwick Library Screening Results, K. pneumoniae (increase in extracellular AK activity): 1.0
[2]; planktonic A. baumannii, cutoff for positive-scoring molecules 3-fold increase
  AK-based Prestwick Library Screening Results, A. baumannii (increase in extracellular AK activity): 1.0
P. aeruginosa; planktonic P. aeruginosa, cutoff for positive-scoring molecules 3-fold increase
  AK-based Prestwick Library Screening Results, P. aeruginosa (increase in extracellular AK activity): 1.0
E. cloacae; planktonic E. cloacae, cutoff for positive-scoring molecules 3-fold increase
  AK-based Prestwick Library Screening Results, E. cloacae (increase in extracellular AK activity): 1.3
E. coli; planktonic E. coli, […]
  AK-based Prestwick Library Screening Results, E. coli (increase in extracellular AK activity): 1.3

## C[C@H]1C(=O)O[C@@H]2CCN3CC=C(COC(=O)[C@](C)(O)[C@]1(C)O)[C@H]23 [Monocrotaline]
E. faecium; planktonic, […], read-out: AK-based Prestwick Library Screening Results, E. faecium (fold increase in extracellular AK activity)
  fold induction at 50 µM: 1.1
[1]; planktonic, […], read-out: AK-based Prestwick Library Screening Results, S. aureus (fold increase in extracellular AK activity)
  fold induction at 50 µM: 1
K. pneumoniae; planktonic, […], read-out: AK-based Prestwick Library Screening Results, K. pneumoniae (fold increase in extracellular AK activity)
  fold induction at 50 µM: 1
[2]; planktonic, […], read-out: AK-based Prestwick Library Screening Results, A. baumannii (fold increase in extracellular AK activity)
  fold induction at 50 µM: 1.2
P. aeruginosa; planktonic, […], read-out: AK-based Prestwick Library Screening Results, P. aeruginosa (fold increase in extracellular AK activity)
  fold induction at 50 µM: 1.2
E. cloacae; planktonic, […], read-out: AK-based Prestwick Library Screening Results, E. cloacae (fold increase in extracellular AK activity)
  fold induction at 50 µM: 1.3
E. coli; planktonic, […], read-out: AK-based Prestwick Library Screening Results, E. coli (fold increase in extracellular AK activity)
  fold induction at 50 µM: 1.3

## CN(C)CCCN1c2ccccc2CCc2ccc(Cl)cc21 [Clomipramine hydrochloride]
E. faecium; 384-well format, cutoff for positive-scoring molecules 3-fold increase, read-out: AK-based Prestwick Library Screening Results, E. faecium (increase in extracellular AK activity)
  fold induction at 50 µM: 1.1
[1]; 384-well format, cutoff for positive-scoring molecules 3-fold increase, read-out: AK-based Prestwick Library Screening Results, S. aureus (increase in extracellular AK activity)
  fold induction at 50 µM: 0.8
K. pneumoniae; 384-well format, cutoff for positive-scoring molecules 3-fold increase, read-out: AK-based Prestwick Library Screening Results, K. pneumoniae (increase in extracellular AK activity)
  fold induction at 50 µM: 0.7
[2]; 384-well format, cutoff for positive-scoring molecules 3-fold increase, read-out: AK-based Prestwick Library Screening Results, A. baumannii (increase in extracellular AK activity)
  fold induction at 50 µM: 1
P. aeruginosa; 384-well format, cutoff for positive-scoring molecules 3-fold increase, read-out: AK-based Prestwick Library Screening Results, P. aeruginosa (increase in extracellular AK activity)
  fold induction at 50 µM: 0.9
E. cloacae; 384-well format, cutoff for positive-scoring molecules 3-fold increase, read-out: AK-based Prestwick Library Screening Results, E. cloacae (increase in extracellular AK activity)
  fold induction at 50 µM: 1
E. coli; 384-well format, cutoff for positive-scoring molecules 3-fold increase, read-out: AK-based Prestwick Library Screening Results, E. coli (increase in extracellular AK activity)
  fold induction at 50 µM: 1.1

## C[N+](C)(C)CCCCCC[N+](C)(C)C.O.O.[Br-].[Br-] [Hexamethonium dibromide dihydrate]
E. faecium; 384-well format, […]
  AK-based Prestwick Library Screening Results, E. faecium (increase in extracellular AK activity): 0.9
[1]; 384-well format, […]
  AK-based Prestwick Library Screening Results, S. aureus (increase in extracellular AK activity): 0.7
K. pneumoniae; 384-well format, […]
  AK-based Prestwick Library Screening Results, K. pneumoniae (increase in extracellular AK activity): 0.7
[2]; 384-well format, […]
  AK-based Prestwick Library Screening Results, A. baumannii (increase in extracellular AK activity): 0.9
P. aeruginosa; 384-well format, […]
  AK-based Prestwick Library Screening Results, P. aeruginosa (increase in extracellular AK activity): 0.8
E. cloacae; 384-well format, […]
  AK-based Prestwick Library Screening Results, E. cloacae (increase in extracellular AK activity): 1.2
E. coli; 384-well format, […]
  AK-based Prestwick Library Screening Results, E. coli (increase in extracellular AK activity): 0.9

## CCOC(=O)NNc1nncc2ccccc12 [Todralazine hydrochloride]
E. faecium; [3]
  fold induction at 50 µM: 0.8
[1]; [4]
  fold induction at 50 µM: 1.3
K. pneumoniae; [5]
  fold induction at 50 µM: 1
[2]; [6]
  fold induction at 50 µM: 1.1
P. aeruginosa; [7]
  fold induction at 50 µM: 1.1
E. cloacae; [8]
  fold induction at 50 µM: 1.7
E. coli; [9]
  fold induction at 50 µM: 1.3
